# Source: patent US8871208B2, “11-β-hydroxysteroid dehydrogenase type 1 (11β-HSD1) inhibitors and uses thereof” (AbbVie Inc., priority 2009, dated 2014)
# Read-outs that look alike come from different tables or passages of the source.
# Columns and labels:
# 11βHSD-1 = 11βHSD-1 (Homo sapiens, UniProt P28845); conditions: cited from earlier work
# [1] = target: T1, truncated human 11β-HSD-1 enzyme (24-287AA) (Homo sapiens, UniProt P28845); test: Human 11β-HSD-1 enzymatic SPA assay; format: biochemical; conditions: human enzyme, SPA
# T1 construct: truncated human 11β-HSD-1 enzyme (24-287AA); made in house; host or cells: E. coli (lysate)
# T1 sequence (P28845 24-287): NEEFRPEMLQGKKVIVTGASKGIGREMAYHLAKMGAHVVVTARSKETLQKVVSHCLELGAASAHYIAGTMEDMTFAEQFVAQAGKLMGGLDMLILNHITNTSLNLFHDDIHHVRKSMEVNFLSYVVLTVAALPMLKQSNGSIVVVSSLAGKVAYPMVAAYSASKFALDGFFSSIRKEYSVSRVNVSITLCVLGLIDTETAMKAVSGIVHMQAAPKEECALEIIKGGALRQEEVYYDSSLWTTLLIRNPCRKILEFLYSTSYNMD
# Procedure: The ability of test compounds to inhibit human 11β-HSD-1 enzymatic activity in vitro was evaluated in a Scintillation Proximity Assay (SPA). […] The reaction was stopped by adding a non-specific 11β-HSD inhibitor, 18β-glycyrrhetinic acid. The tritiated cortisol was captured by a mixture of an anti-cortisol monoclonal antibody and SPA beads coated with anti-mouse antibodies. The reaction plate was shaken at room temperature and the radioactivity bound to SPA beads was then measured on a β-scintillation counter. The 11β-HSD-1 assay was carried out in 96-well microtiter plates in a total volume of 220 μl. […] In order to drive the reaction in the forward direction, 1 mM G-6-P was also added. Solid compound was dissolved in DMSO to make a 10 mM stock followed by a subsequent 10-fold dilution with 3% DMSO in Tris/EDTA buffer (pH 7.4). 22 μl of titrated compounds was then added in triplicate to the substrate. Reactions were initiated by the addition of 10 μl of 0.1 mg/ml E. coli lysates overexpressing 11β-HSD-1 enzyme. After shaking and incubating plates for 30 minutes at room temperature, reactions were stopped by adding 10 μl of 1 mM glycyrrhetinic acid. The product, tritiated cortisol, was captured by adding 10 μl of 1 μM monoclonal anti-cortisol antibodies and 100 μl SPA beads coated with anti-mouse antibodies. After shaking for 30 minutes, plates were read on a liquid scintillation counter Topcount. Percent inhibition was calculated based on the background and the maximal signal. Wells that contained substrate without compound or enzyme were used as the background, while the wells that contained substrate and enzyme without any compound were considered as maximal signal. Percent of inhibition of each compound was calculated relative to the maximal signal and IC50 curves were generated. This assay was applied to 11β-HSD-2 as well, whereby tritiated cortisol and NAD^+ were used as substrate and cofactor, respectively.
# [2] = Table 3, Boyle et al., Expert Opin. Ther. Patents 19(6), 801-825 (2009), read-out: IC50
# [3] = Table 1, Barf et al., Drugs of the Future 31(3), 231-243 (2006), read-out: IC50
# [4] = Table 5, Boyle, Current Opinion in Drug Discovery & Development 2008, 11(4), 495-511, read-out: IC50
# [5] = Table 4, Webster et al., Expert Opin. Ther. Patents 17(12), 1407-1422 (2007), read-out: IC50
# [6] = Table 4, Webster et al., Expert Opin. Ther. Patents 17(12), 1407-1422 (2007), read-out: Ki
# Sequence of 11βHSD-1 (P28845 whole entry, species assumed, the tested form may be a part): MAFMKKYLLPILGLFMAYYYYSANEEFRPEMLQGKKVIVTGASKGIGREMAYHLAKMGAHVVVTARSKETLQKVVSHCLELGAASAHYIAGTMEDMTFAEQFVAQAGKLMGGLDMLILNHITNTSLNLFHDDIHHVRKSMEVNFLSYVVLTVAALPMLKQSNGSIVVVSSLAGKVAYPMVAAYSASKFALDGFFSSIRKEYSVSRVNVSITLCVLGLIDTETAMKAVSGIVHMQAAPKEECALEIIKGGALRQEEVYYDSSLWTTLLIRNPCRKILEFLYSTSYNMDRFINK
smiles,measurement,setting,value
CCOc1cc(NC(C)=O)ccc1-c1nnc(N(C)c2ccc(F)cc2)n1C [Example 532],IC50,11βHSD-1; [2],3.4 nM
C[C@@H]1CN(c2ccc(C(N)(C(F)(F)F)C(F)(F)F)cc2)CCN1S(=O)(=O)c1ccc(C(C)(O)C(F)(F)F)cc1 (some centres unmarked) [Example 596],IC50,11βHSD-1; [2],< 10 nM
CC(C)c1nsc(NS(=O)(=O)c2ccc(Oc3ccccc3)cc2)n1 [Example 503],IC50,11βHSD-1; [3],219 nM
CCCC(=O)Cc1csc(NS(=O)(=O)c2cccc(Cl)c2C)n1 [Example 502],IC50,11βHSD-1; [3],14 nM
O=C(c1ccc(-c2cc(Cl)c(CN3CCC(C4CCCCC4)C3=O)c(Cl)c2)cc1)N1CCN(CCF)CC1 (centres unmarked) [Example 572],IC50,11βHSD-1; [2],15.4 nM
O=C(N1CCC(c2cn[nH]c2)CC1)N1CCOc2ccc(Cl)cc21 [Example 583],IC50,11βHSD-1; [2],39 nM
O=S(=O)(Cc1ccc(C(F)(F)F)cc1)N1CCN(c2ncccc2C(F)(F)F)CC1 [Example 707],IC50,11βHSD-1; [4],430 nM
O=C1CC(c2ccccc2)Oc2ccccc21 (centres unmarked) [Example 497],IC50,11βHSD-1; [3],18000 nM
COc1cc(-c2nnc(C34CC5CC(CC(C5)C3)C4)n2C)cc(OC)c1OC [Example 507],IC50,11βHSD-1; [3],< 10 nM
C[C@](O)(c1ccc(C(=O)N(C2CCC(c3cccnc3)CC2)C2CC2)cc1)C(F)(F)F (some centres unmarked) [Example 714],IC50,11βHSD-1,1.4 nM
C[S+]([O-])[C@]12C[C@@H]3C[C@H](C1)[C@@H](NC(=O)C(C)(C)Oc1ccc(F)cc1Cl)[C@@H](C3)C2 (some centres unmarked) [2-(2-chloro-4-fluorophenoxy)-2-methyl-N-[(E)-5-(methylsulfinyl)-2-adamantyl]propanamide],IC50,[1],28 nM
C[C@@H](c1ccc(Cl)cc1)N1CCN([C@H]2C3CC4CC2C[C@](O)(C4)C3)C1=O [Example 559],IC50,11βHSD-1; [2],12 nM
O=S(=O)(Nc1nc(C23CC4CC(CC(C4)C2)C3)cs1)c1cc2ccccc2s1 [Example 682],IC50,11βHSD-1; [5],42 nM
Cc1cc(C)nc(NS(=O)(=O)N2CCN(c3ccc(C#N)cn3)CC2)c1 [Example 674],Ki,11βHSD-1,0.66 nM
Cc1c(Cl)cccc1S(=O)(=O)Nc1ccc2c(c1)nc(C)n2C [Example 505],% @ 10 μM,"11βHSD-1; Table 1, @ 10 μM",110% @ 10
COc1ccc(S(=O)(=O)NCC(=O)c2ccc(C(C)(C)C)cc2)cc1 [Example 713],IC50,11βHSD-1; [4],82 nM
C[C@@H](c1ccc2ccccc2c1)N1CCN(Cc2ccccc2)C1=O [Example 575],IC50,11βHSD-1; [2],2.9 nM
CC1(C)CC2CC(C)(CN2C(=O)c2ccc(C(C)(C)O)cc2)C1 (centres unmarked) [Example 696],IC50,11βHSD-1; [4],7 nM
CC(C)(C(=O)NC1C2CC3CC(C2)CC1C3)c1ccc(F)cc1 (centres unmarked) [Example 512],IC50,11βHSD-1; [3],< 1000 nM
O=C(O)C12CC3CC(C1)C(NC(=O)C1(c4ccccc4)CC1)C(C3)C2 (centres unmarked) [(E)-4-[(1-phenyl-cyclopropanecarbonyl)-amino]-adamantane-1-carboxylic acid],IC50,[1],102 nM
Cc1cc(N)nc(NS(=O)(=O)c2sc(-c3ccc(C#N)cc3)nc2C)c1 [Example 672],Ki,11βHSD-1; [6],2.8 nM
CC1(C)NC2(CCN(C(=O)NC3C4CC5CC(C4)CC3C5)CC2)c2c(Cl)cccc21 (centres unmarked) [Example 560],IC50,11βHSD-1; [2],< 50 nM
CC(=O)Nc1ccc(OCC(=O)c2ccc(Cl)cc2)cc1 [Example 521],IC50,11βHSD-1; [3],153 nM
CC1(C2CC2)Cc2nnc(-c3ccccc3Cl)n2CCS1 (centres unmarked) [Example 534],% @ 39 nM,"11βHSD-1; Table 3, @ 39 nM",71.8% @ 39
O=C(c1cnn(C2CCNCC2)c1C1CC1)N1CC[C@@H](c2ccccc2C(F)(F)F)C1 [Example 578],IC50,11βHSD-1; [2],< 30 nM
CC1(C2CC2)CN(C2C3CC4CC2CC(O)(C4)C3)C(=O)N1C1CC1 (centres unmarked) [Example 557],IC50,11βHSD-1; [2],3 nM
CN1C(=O)N(C2C3CC4CC(C3)CC2C4)C[C@@H]1C(C)(C)C (some centres unmarked) [Example 558],IC50,11βHSD-1; [2],< 50 nM
O=C1OC2(CCN(C(=O)C(O)c3ccc(Br)cc3F)C2)c2ccccc21 (centres unmarked) [Example 580],IC50,11βHSD-1; [2],< 1000 nM
O=S(=O)(Nc1ccnc(C2CC2)n1)c1ccc2ccccc2c1 [Example 680],IC50,11βHSD-1; [5],20 nM
CC(O)c1cccc(NS(=O)(=O)c2ccc(-c3ccc(C#N)cc3)cc2)n1 (centres unmarked) [Example 673],Ki,11βHSD-1; [6],1.8 nM
Cc1cc(Cl)ccc1OCCCC(=O)N(C)C1C2CC3CC(C2)C(CO)C1C3 (centres unmarked) [Example 555],IC50,11βHSD-1; [2],1 nM
O=C(c1ccc(OC(F)(F)F)cc1)C1CCN(C(=O)c2ccc(F)cc2)CC1 [Example 523],IC50,11βHSD-1; [3],50 nM
CC1(C)CC2CC(C)(CN2C(=O)c2cc(Cl)c(N)c(Cl)c2)C1 (centres unmarked) [Example 693],IC50,11βHSD-1; [4],4 nM
Cc1c(Cl)cccc1S(=O)(=O)N1CCC[C@H](C(=O)NC2CCCCC2)C1 [Example 600],IC50,11βHSD-1; read-out: IC50,3 nM
CC(CC(F)(F)F)c1nnc(C23CCC(c4nnc(-c5ccccc5C(F)(F)F)n4C)(CC2)CC3)o1 (centres unmarked) [Example 531],IC50,11βHSD-1; [2],9 to 100 nM
O=C(c1cnoc1-c1ccc(F)cc1)N1CCC(c2ccccc2)C1 (centres unmarked) [Example 700],IC50,"11βHSD-1; Table 5, Boyle, Current Opinion in Drug Discovery & Development 2008, 11(4), 495-511","8 − 10,000 nM"
C[C@H](CCC(=O)O)[C@H]1CC[C@H]2[C@@H]3[C@H](O)C[C@@H]4C[C@H](O)CC[C@]4(C)[C@H]3CC[C@]12C [Example 490],IC50,11βHSD-1,2800 nM
CC(=O)N1CCC2(CC(C3(c4ccc(Cl)cc4)CC3)=NO2)C1 (centres unmarked) [Example 579],IC50,11βHSD-1; [2],< 5000 nM
O=C1[C@H](Cc2c(Cl)cc(-c3ccc(F)cc3)cc2Cl)CCN1C1CCc2n[nH]cc2C1 (some centres unmarked) [Example 570],IC50,11βHSD-1; [2],276 nM
Cc1c(Cl)cccc1S(=O)(=O)Nc1nc(CC(=O)N2CCN(C)CC2)cs1 [Example 500],IC50,11βHSD-1,96 nM
CCSc1nc(N2CCOC(C(=O)O)C2)ccc1C(=O)NC1C2CC3CC(C2)CC1C3 (centres unmarked) [Example 547],IC50,11βHSD-1; [2],6 nM
O=C(NC1C2CC3CC1CC(O)(C3)C2)c1ccc(Oc2ccc(Cl)cn2)cc1 (centres unmarked) [Example 551],IC50,11βHSD-1; [2],~70 nM
C[C@H](NC1=NC(=O)C(C)(C(F)(F)F)S1)c1ccccc1F (some centres unmarked) [Example 527],IC50,11βHSD-1,33 nM
O=C(CS(=O)(=O)N1CCCC1)c1ccc(F)cc1 [Example 519],IC50,11βHSD-1; [3],94 nM
N#Cc1ccc(C2CCN(S(=O)(=O)Nc3cccc(N)n3)CC2)cc1 [Example 671],Ki,11βHSD-1; read-out: Ki,< 1 nM
O=C(c1ccc(-c2cc(Cl)c(C[C@@H]3CCN(C4CCCCC4)C3=O)c(Cl)c2)cc1)N1CCN(CCF)CC1 [Example 564],IC50,11βHSD-1; [2],115 nM
N#Cc1ccccc1CSc1nc(O)c(Cl)c2ccc(Cl)cc12 [Example 537],IC50,11βHSD-1; [2],2 nM
O=C(NC1C2CC3CC(C2)CC1C3)[C@H]1CCCN1S(=O)(=O)c1ccc(Cl)cc1 (some centres unmarked) [Example 548],IC50,11βHSD-1; [2],< 0.03 nM
O=C(N[C@H]1CCCN(S(=O)(=O)c2ccc(F)c3ccccc23)C1)N1C2CCC1CC(O)C2 (some centres unmarked) [Example 601],IC50,11βHSD-1; read-out: IC50,3 nM
O=C(N[C@H]1CCCN(S(=O)(=O)c2ccc(F)c3ccccc23)C1)N1CCC(O)CC1 [Example 703],IC50,11βHSD-1; [4],13 nM
CC(C)[C@@H]1CC[C@@H](C)C[C@@H]1O [Example 524],IC50,11βHSD-1; read-out: IC50,35000 nM
Cc1c(S(=O)(=O)Nc2nc(C34CC5CC(CC(C5)C3)C4)cs2)sc2ccc(Cl)cc12 [Example 681],IC50,11βHSD-1; [5],18 nM
Cc1ccc(C(=O)N(C2CC2)[C@H]2CC[C@H](CCO)CC2)c(F)c1 [Example 594],IC50,11βHSD-1; [2],2 nM
O=C(c1ccc(-c2ccccc2[N+](=O)[O-])o1)N1CC[C@@H]2CCCC[C@@H]2C1 [Example 514],IC50,11βHSD-1; [3],7.7 nM
Cc1ccc(S(=O)(=O)N2CCCN(c3c(Cl)cncc3Cl)CC2)cc1 [Example 597],IC50,11βHSD-1; [2],910 nM
O=C1OC2(CCN(C(=O)Nc3ccc(Cl)cc3F)C2)c2ccccc21 (centres unmarked) [Example 581],IC50,11βHSD-1; [2],< 20000 nM
COc1cc(C(=O)N2CCC(n3c(=O)[nH]c4ccccc43)CC2)ccc1C [Example 698],IC50,11βHSD-1; [4],110 nM
O=C(Cc1ccc(Cl)cc1)c1ccc(Br)cc1 [Example 520],IC50,11βHSD-1; [3],77 nM
O=S(=O)(Cc1ccc(C(F)(F)F)cc1)N1CCN(c2ncccc2C(F)(F)F)CC1 [Example 598],IC50,11βHSD-1; [2],430 nM
